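Five concentrations, 48 hours, 96-well plates. The concentration for 50% growth inhibition is given as GI50.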 Calls of active or inactive are those of the source. Rule as the data show it: active = GI50 up to about 1.1 µM and inactive = higher.
Columns and labels:
Assay in all cases: NCI-60 cell line screen, 48 h
786-0 = test system: 786-0
A498 = test system: A498
A549 = test system: A549
ACHN = test system: ACHN
BT-549 = test system: BT-549
CAKI-1 = test system: CAKI-1
CCRF-CEM = test system: CCRF-CEM
COLO 205 = test system: COLO 205
DU-145 = test system: DU-145
EKVX = test system: EKVX
HCC 2998 = test system: HCC 2998
HCT-116 = test system: HCT-116
HCT-15 = test system: HCT-15
HOP-62 = test system: HOP-62
HOP-92 = test system: HOP-92
HT-29 = test system: HT-29
Hs-578T = test system: Hs-578T
IGROV-1 = test system: IGROV-1
K562 = test system: K562
KM12 = test system: KM12
LOX IMVI = test system: LOX IMVI
M14 = test system: M14
MCF7 = test system: MCF7
MDA-MB-231 = test system: MDA-MB-231
MDA-MB-435 = test system: MDA-MB-435
MDA-N = test system: MDA-N
MOLT-4 = test system: MOLT-4
Malme-3M = test system: Malme-3M
NCI-H226 = test system: NCI-H226
NCI-H23 = test system: NCI-H23
NCI-H460 = test system: NCI-H460
NCI-H522 = test system: NCI-H522
NCI/ADR-RES = test system: NCI/ADR-RES
OVCAR-3 = test system: OVCAR-3
OVCAR-4 = test system: OVCAR-4
OVCAR-5 = test system: OVCAR-5
OVCAR-8 = test system: OVCAR-8
PC-3 = test system: PC-3
RPMI-8226 = test system: RPMI-8226
RXF 393 = test system: RXF 393
SF-268 = test system: SF-268
SF-295 = test system: SF-295
SF-539 = test system: SF-539
SK-MEL-28 = test system: SK-MEL-28
SK-MEL-2 = test system: SK-MEL-2
SK-MEL-5 = test system: SK-MEL-5
SK-OV-3 = test system: SK-OV-3
SN12C = test system: SN12C
SNB-19 = test system: SNB-19
SNB-75 = test system: SNB-75
SW-620 = test system: SW-620
T47D = test system: T47D
TK-10 = test system: TK-10
U-251 = test system: U-251
UACC-257 = test system: UACC-257
UACC-62 = test system: UACC-62
UO-31 = test system: UO-31

SMILES: COc1ccc(-n2c(=O)n(C)c(=O)n2-c2c(C)c(C)c(C)c(C)c2C)cc1
- GI50 (786-0): > 100 µM (inactive)
- GI50 (A498): > 100 µM (inactive)
- GI50 (A549): > 100 µM (inactive)
- GI50 (ACHN): > 100 µM (inactive)
- GI50 (BT-549): > 100 µM (inactive)
- GI50 (CAKI-1): > 100 µM (inactive)
- GI50 (CCRF-CEM): 0.148 µM (active)
- GI50 (COLO 205): > 100 µM (inactive)
- GI50 (DU-145): > 100 µM (inactive)
- GI50 (EKVX): > 100 µM (inactive)
- GI50 (HCC 2998): > 100 µM (inactive)
- GI50 (HCT-116): > 100 µM (inactive)
- GI50 (HCT-15): > 100 µM
- GI50 (HOP-62): > 100 µM (inactive)
- GI50 (HOP-92): > 100 µM (inactive)
- GI50 (HT-29): > 100 µM (inactive)
- GI50 (Hs-578T): > 100 µM (inactive)
- GI50 (IGROV-1): > 100 µM (inactive)
- GI50 (K562): > 100 µM (inactive)
- GI50 (KM12): > 100 µM (inactive)
- GI50 (LOX IMVI): > 100 µM (inactive)
- GI50 (M14): > 100 µM (inactive)
- GI50 (MCF7): > 100 µM (inactive)
- GI50 (MDA-MB-231): > 100 µM (inactive)
- GI50 (MDA-MB-435): > 100 µM (inactive)
- GI50 (MDA-N): > 100 µM (inactive)
- GI50 (MOLT-4): > 100 µM (inactive)
- GI50 (Malme-3M): > 100 µM (inactive)
- GI50 (NCI-H226): > 100 µM (inactive)
- GI50 (NCI-H23): > 100 µM (inactive)
- GI50 (NCI-H460): > 100 µM (inactive)
- GI50 (NCI-H522): > 100 µM (inactive)
- GI50 (NCI/ADR-RES): > 100 µM (inactive)
- GI50 (OVCAR-3): > 100 µM (inactive)
- GI50 (OVCAR-4): > 100 µM (inactive)
- GI50 (OVCAR-5): > 100 µM (inactive)
- GI50 (OVCAR-8): > 100 µM (inactive)
- GI50 (PC-3): > 100 µM (inactive)
- GI50 (RPMI-8226): > 100 µM (inactive)
- GI50 (RXF 393): > 100 µM (inactive)
- GI50 (SF-268): > 100 µM (inactive)
- GI50 (SF-295): > 100 µM (inactive)
- GI50 (SF-539): > 100 µM (inactive)
- GI50 (SK-MEL-28): > 100 µM (inactive)
- GI50 (SK-MEL-2): > 100 µM (inactive)
- GI50 (SK-MEL-5): > 100 µM (inactive)
- GI50 (SK-OV-3): > 100 µM (inactive)
- GI50 (SN12C): > 100 µM (inactive)
- GI50 (SNB-19): > 100 µM (inactive)
- GI50 (SNB-75): > 100 µM (inactive)
- GI50 (SW-620): > 100 µM (inactive)
- GI50 (T47D): > 100 µM (inactive)
- GI50 (TK-10): > 100 µM (inactive)
- GI50 (U-251): > 100 µM (inactive)
- GI50 (UACC-257): > 100 µM (inactive)
- GI50 (UACC-62): > 100 µM (inactive)
- GI50 (UO-31): > 100 µM (inactive)

Reference: ChEMBL document CHEMBL1201862, “PubChem BioAssay data set” (2004)
